In the NIST ThermoML archive (doi:10.1021/acs.jced.6b00526):
Numbers after ± are expanded uncertainties.

Key:
[1] = 100 kPa; for viscosity: Falling or rolling sphere viscometry; for mass density: Vibrating tube method
[2] = refractive index (Na D-line) (dimensionless); details: 100 kPa, Standard Abbe refractometry
[3] = xn = mol fraction of the nth substance listed; details: 100 kPa, Liquid, x1 = 1; for mass density: Vibrating tube method; for viscosity: Falling or rolling sphere viscometry
[4] = refractive index (Na D-line) (dimensionless); xn = mol fraction of the nth substance listed; details: 100 kPa, Liquid, Standard Abbe refractometry, x1 = 1

OCCO [1,2-ethanediol]
Liquid
Details | mass density, [1] [kg/m3] | refractive index, [2] | viscosity, [1] [mPa·s]
288.15 K | – | 1.432 ± 0.029 | –
293.15 K | 1113.3 ± 4.5 | 1.4306 ± 0.029 | 21.13 ± 3.4
298.15 K | – | 1.4294 ± 0.029 | 17.24 ± 2.8
303.15 K | 1106.8 ± 4.4 | 1.4282 ± 0.029 | 14.23 ± 2.3
308.15 K | – | 1.4269 ± 0.029 | –
313.15 K | 1099.1 ± 4.4 | 1.4257 ± 0.029 | –
318.15 K | – | 1.4244 ± 0.029 | –

OCCCCO [1,4-butanediol]
Metastable liquid
Details | mass density, [1] [kg/m3] | refractive index, [2] | viscosity, [1] [mPa·s]
288.15 K | 1018.6 ± 4.1 | 1.447 ± 0.029 | –
293.15 K | 1016.3 ± 4.1 | 1.4455 ± 0.029 | 90.7 ± 15
298.15 K | 1012.9 ± 4.1 | 1.4441 ± 0.029 | 69.89 ± 11
303.15 K | 1009.9 ± 4 | 1.4426 ± 0.029 | 55.24 ± 8.8
308.15 K | 1006.9 ± 4 | 1.4412 ± 0.029 | –
313.15 K | 1003.2 ± 4 | 1.4398 ± 0.029 | –
318.15 K | 1000.8 ± 4 | 1.4384 ± 0.029 | –

OCCCCCO [1,5-pentanediol]
Liquid
Details | mass density, [1] [kg/m3] | refractive index, [2] | viscosity, [1] [mPa·s]
288.15 K | 992.2 ± 4 | 1.4503 ± 0.029 | –
293.15 K | 989.2 ± 4 | 1.449 ± 0.029 | 118.7 ± 19
298.15 K | 986.2 ± 4 | 1.4478 ± 0.029 | 86.79 ± 14
303.15 K | 983.2 ± 4 | 1.4466 ± 0.029 | 68.3 ± 11
308.15 K | 980.3 ± 4 | 1.4454 ± 0.029 | –
313.15 K | 977.4 ± 4 | 1.4441 ± 0.029 | –
318.15 K | 974.8 ± 4 | 1.443 ± 0.029 | –

OCCCO [propan-1,3-diol]
Liquid
Details | mass density, [1] [kg/m3] | refractive index, [2] | viscosity, [1] [mPa·s]
288.15 K | 1056.2 ± 4.3 | 1.4407 ± 0.029 | –
293.15 K | 1053.2 ± 4.3 | 1.4393 ± 0.029 | 51.55 ± 8.3
298.15 K | 1049.9 ± 4.3 | 1.438 ± 0.029 | 40.8 ± 6.5
303.15 K | 1046.7 ± 4.3 | 1.4367 ± 0.029 | 32.74 ± 5.3
308.15 K | 1043.5 ± 4.3 | 1.4353 ± 0.029 | –
313.15 K | 1040.4 ± 4.2 | 1.434 ± 0.029 | –
318.15 K | 1037.9 ± 4.2 | 1.4327 ± 0.029 | –

O [water]
Liquid
Details | mass density, [1] [kg/m3] | refractive index, [2] | viscosity, [1] [mPa·s]
288.15 K | 999.2 ± 4 | 1.3338 ± 0.027 | –
293.15 K | 998.3 ± 4 | 1.3331 ± 0.027 | 0.949 ± 0.15
298.15 K | – | 1.3325 ± 0.027 | 0.843 ± 0.14
303.15 K | – | 1.3318 ± 0.027 | 0.755 ± 0.12
308.15 K | – | 1.3312 ± 0.027 | –
313.15 K | – | 1.3305 ± 0.027 | –
318.15 K | 990.8 ± 4 | 1.3299 ± 0.027 | –

O [water] + OCCCCCO
Details | mass density, [3] [kg/m3] | refractive index, [4] | viscosity, [3] [mPa·s]
288.15 K | 999.2 ± 4 | 1.3338 ± 0.027 | –
293.15 K | 998.3 ± 4 | 1.3331 ± 0.027 | 0.949 ± 0.15
298.15 K | – | 1.3325 ± 0.027 | 0.843 ± 0.14
303.15 K | – | 1.3318 ± 0.027 | 0.755 ± 0.12
308.15 K | – | 1.3312 ± 0.027 | –
313.15 K | – | 1.3305 ± 0.027 | –
318.15 K | 990.8 ± 4 | 1.3299 ± 0.027 | –

O [water] + OCCCCO
Details | mass density, [3] [kg/m3] | refractive index, [4] | viscosity, [3] [mPa·s]
288.15 K | 999.2 ± 4 | 1.3338 ± 0.027 | –
293.15 K | 998.3 ± 4 | 1.3331 ± 0.027 | 0.949 ± 0.15
298.15 K | – | 1.3325 ± 0.027 | 0.843 ± 0.14
303.15 K | – | 1.3318 ± 0.027 | 0.755 ± 0.12
308.15 K | – | 1.3312 ± 0.027 | –
313.15 K | – | 1.3305 ± 0.027 | –
318.15 K | 990.8 ± 4 | 1.3299 ± 0.027 | –

O [water] + OCCCO
Details | mass density, [3] [kg/m3] | refractive index, [4] | viscosity, [3] [mPa·s]
288.15 K | 999.2 ± 4 | 1.3338 ± 0.027 | –
293.15 K | 998.3 ± 4 | 1.3331 ± 0.027 | 0.949 ± 0.15
298.15 K | – | 1.3325 ± 0.027 | 0.843 ± 0.14
303.15 K | – | 1.3318 ± 0.027 | 0.755 ± 0.12
308.15 K | – | 1.3312 ± 0.027 | –
313.15 K | – | 1.3305 ± 0.027 | –
318.15 K | 990.8 ± 4 | 1.3299 ± 0.027 | –

O [water] + OCCO
Details | mass density, [3] [kg/m3] | refractive index, [4] | viscosity, [3] [mPa·s]
288.15 K | 999.2 ± 4 | 1.3338 ± 0.027 | –
293.15 K | 998.3 ± 4 | 1.3331 ± 0.027 | 0.949 ± 0.15
298.15 K | – | 1.3325 ± 0.027 | 0.843 ± 0.14
303.15 K | – | 1.3318 ± 0.027 | 0.755 ± 0.12
308.15 K | – | 1.3312 ± 0.027 | –
313.15 K | – | 1.3305 ± 0.027 | –
318.15 K | 990.8 ± 4 | 1.3299 ± 0.027 | –
